Publication PMC5841303, “In silico screening for human norovirus antivirals reveals a novel non-nucleoside inhibitor of the viral polymerase” (Scientific Reports, 2018)
Read-outs that look alike come from different tables or passages of the source.

Assays:
[1] = target: human norovirus Sydney 2012 RdRp (Norovirus GII.4 (Norwalk virus, human norovirus), UniProt K4L8Z7); assay: Fluorescent de novo RdRp activity assay (PicoGreen, poly(C) template); type: biochemical; conditions: for inhibition at 100 µM: read-out: inhibition of human norovirus RdRp activity, 100 µM
Method: The 62 compounds identified in silico were screened for inhibition of norovirus RdRp activity using an in vitro fluorescent, de novo RdRp assay. Compounds were tested at fixed concentrations of 10 µM and 100 µM, and compared to mock treated samples containing the vehicle only (0.5% DMSO [vol/vol]) (Fig. 4A,B). […] For certain compounds, significant insolubility was observed, coupled with either inherent fluorescence quenching (positive y-axis values on Fig. 4A,B) or enhancement of the fluorescence signal (negative y-axis values).
The newly synthesised compounds, including the re-prepared hit 13 and some synthesis intermediates (Table 1), were initially evaluated on norovirus Sydney 2012 RdRp activity in vitro using a quantitative fluorescent assay. Compounds were tested at a fixed concentration of 10 μM and compared to the relative activity of mock treated samples.
Recombinant calicivirus RdRps (GenBank accession numbers) norovirus GII.Pe/GII.4 Sydney 2012 (KT239579), MNV GV CW1 (DQ285629), RHDV Czech V351 (KF594473.1), and SaV GI.1 Mc114 (AY237422) were expressed and purified as described previously[60],[61]. RdRp resistance mutants were generated using the QuikChange site-directed mutagenesis kit (Agilent Technologies, Santa Clara, CA, USA) and confirmed by Sanger sequencing.
(§1) Fluorescent RdRp activity assays were carried out as previously described[14],[62]. Briefly, RdRp activity was quantified by monitoring the formation of double-stranded RNA (dsRNA) from a single stranded homopolymeric template, poly(C) (Sigma Aldrich, St Louis, MO, USA), using the fluorescent dye PicoGreen (Life Technologies, Carlsbad, CA, USA). RdRp assays were performed in 384-well plates, and each reaction mixture contained 400 ng enzyme, 45 µM GTP, 10 ng/µL poly(C) RNA, 2.5 mM MnCl2, 5 mM dithiothreitol, (DTT), 0.01% bovine serum albumin (BSA), and 0.005% Tween 20 in 20 mM Tris-HCl, pH 7.5, with a final reaction volume of 25 µL. The previous published norovirus NNI NIC02 was used as a positive control. RdRps were incubated for 10 mins at 30 °C in the presence of the test compounds or the compound vehicle DMSO (0.5% vol/vol) before addition into the reaction mixture, which was then allowed to run 15 min at 30 °C then terminated with 10 mM EDTA, followed by PicoGreen staining and dsRNA quantitation. GraphPad Prism V6.05 (La Jolla, CA, USA) was used to plot the IC50 values. In cases where fluorescent enhancement was recorded for a compound instead of inhibition, a secondary gel-based polymerase activity assay was used as a counter-screen as described below, to exclude the possibility of RdRp activity enhancement (Supplementary Fig. S1). Primed elongation activity was examined in a gel-based assay as previously described[16],[63] using the RNA template (PE44-NoV, Fig. 4D). Gels were imaged using BioRad (Hercules, CA, U.SA) Geldoc Universal Hood II, running BioRad Image Lab software, V4.1, build 16. Antagonism was calculated using Compusyn software V1.0[59]. 54 and PPNDS (4:1 ratio) were tested alone and together against norovirus Sydney 2012 RdRp.

[2] = test system: norovirus RdRp; assay: Counter-screen gel-shift RdRp assay (primed elongation of PE44-NoV template); type: biochemical, human norovirus; conditions: fixed concentration of 100 µM
Method: In this assay, a 32 nucleotide RNA template (PE44-NoV) is extended to 44 nucleotides in the presence of an active RdRp[16]. […] Inhibition of primed elongation of the PE44-NoV template was examined at a fixed concentration of 100 µM (Fig. 4D). In the absence of inhibition (0.5% DMSO vehicle only) the RNA template was extended to 44 nucleotides (Fig. 4D), evidenced by an upward gel shift and the appearance of the second, higher band.
as §1

[3] = target: T1, MNV RdRp (Norovirus, UniProt Q80J95); assay: Fluorescent RdRp activity assay, MNV RdRp; type: biochemical, murine norovirus; conditions: fixed concentration of 100 µM
T1 construct: made in house
From the text: The antiviral activity of the four compounds (11, 13, 42a and 54) were examined for inhibition of RNA polymerases from other viruses spanning three genera of the Caliciviridae family, including Norovirus (human norovirus and MNV), Lagovirus (rabbit haemorrhagic disease virus [RHDV]) and Sapovirus (human sapovirus). […] The protein sequence of the examined calicivirus polymerases has an identity range between 30.2–61.4%, and therefore the broad-spectrum activity of these compounds could be attributed to a common, highly-conserved binding pocket across the RdRps, as has been previously reported with broad-spectrum activity of other site-B binding NNIs[16]. Moreover, the ability of each compound to inhibit the different RdRps in a similar range could be further confirmation of targeting a well-conserved binding site of the Caliciviridae family.
Recombinant calicivirus RdRps (GenBank accession numbers) norovirus GII.Pe/GII.4 Sydney 2012 (KT239579), MNV GV CW1 (DQ285629), RHDV Czech V351 (KF594473.1), and SaV GI.1 Mc114 (AY237422) were expressed and purified as described previously[60],[61]. […]
Fluorescent RdRp activity assays were carried out as previously described[14],[62]. Briefly, RdRp activity was quantified by monitoring the formation of double-stranded RNA (dsRNA) from a single stranded homopolymeric template, poly(C) (Sigma Aldrich, St Louis, MO, USA), using the fluorescent dye PicoGreen (Life Technologies, Carlsbad, CA, USA). […] RdRps were incubated for 10 mins at 30 °C in the presence of the test compounds or the compound vehicle DMSO (0.5% vol/vol) before addition into the reaction mixture, which was then allowed to run 15 min at 30 °C then terminated with 10 mM EDTA, followed by PicoGreen staining and dsRNA quantitation. […] In cases where fluorescent enhancement was recorded for a compound instead of inhibition, a secondary gel-based polymerase activity assay was used as a counter-screen as described below, to exclude the possibility of RdRp activity enhancement (Supplementary Fig. S1). […] Antagonism was calculated using Compusyn software V1.0[59]. […]

[4] = Observed compound solubility; type: physicochemical; conditions: assay conditions / 100% DMSO
Method: Therefore, they were counter-screened at 100 µM in a secondary gel-based assay (Supplementary Fig. S1).
To confirm RdRp inhibition and to exclude any potential false positives from the first fluorescence RdRp assay, the eight selected compounds (Fig. 4C) were then assessed using a gel-shift enzyme activity assay.
Dose-dependent inhibitory response curves were used to establish IC50 values for the five test compounds (Table 2). […] Therefore, 42b was too insoluble to attain a reliable confidence interval in the dose-response experiments and was not examined further. However, from the other four compounds, hit 11 and its phenyl derivative 54 gave the lowest IC50 values, 3–5 fold improved compared with 13 and its derivative 42a, confirming increased RdRp inhibitory activity associated with this scaffold.

[5] = 10 µM, secondary screen of newly synthesised compounds
[6] = read-out: inhibition of norovirus Sydney 2012 RdRp activity, 10 µM, secondary screen of newly synthesised compounds
[7] = read-out: inhibition of human norovirus RdRp activity, 10 µM, initial screen of purchased compounds
[8] = initial screen of purchased compounds

For O=C(CN1C(=O)S/C(=C\c2ccc(-c3ccccc3)o2)C1=O)Nc1ccccc1 [Compound 42a], the IC50 [1] was 27.4 µM, the “inhibition of primed elongation activity (gel-shift)” value (“inhibition … (gel-shift)” below) [2] was “near complete abolishment of norovirus RdRp activity” and the inhibition at 100 µM [3] was 44.4%. The “inhibition of MNV RdRp activity” value ([3]; 100 µM) was under 50%.

In the case of Cc1ccccc1-c1ccc(/C=C2\SC(=O)N(CC(=O)N3CCCCC3)C2=O)o1 [Compound 24c], the “inhibition of norovirus Sydney 2012 RdRp activity” value [1, 5] is reported as “loss of inhibitory activity”.

In the case of COC(=O)c1ccc(-c2ccc(/C=C3\SC(=O)N(CC(=O)N4CCCCC4)C3=O)o2)cc1 [Compound 24b], the inhibition at 10 µM [1, 6] is reported as 60% and the “inhibition … (gel-shift)” value [2] is reported as “no appreciable effect”.

With COc1ccc(N2C(=O)c3ccc(C(=O)O)cc3C2=O)cc1NC(=O)c1ccccc1 [Compound 9] the inhibition at 10 µM [1, 7] was over 25% and the inhibition at 100 µM [1, 8] was over 50%.

With O=C(O)c1ccc(-c2ccc(/C=C3\SC(=O)N(CC(=O)N4CCOCC4)C3=O)o2)cc1 [Compound 28] the inhibition at 10 µM [1, 6] was about 50%.

With Cc1ccc(N2NC(=O)/C(=C\c3ccc(-c4ccc(S(=O)(=O)Nc5ccccc5)cc4)o3)C2=O)cc1 [Compound 55] the “inhibition … (gel-shift)” value [2] was “minimal inhibition”.

In the case of COC(=O)c1ccc(-c2ccc(/C=C3\SC(=O)N(CC(=O)N4CCCCC4)C3=O)o2)c(C)c1 [Compound 24d], the inhibition at 10 µM [1, 6] is reported as 25%.

For C/C(=N\NC(=O)c1ccccc1O)c1ccc(O)cc1O [Compound 12], the inhibition at 10 µM [1, 7] was over 25% and the inhibition at 100 µM [1, 8] was over 25%.

In the case of Cc1cc(C(=O)O)ccc1-c1ccc(/C=C2\SC(=O)N(CC(=O)N3CCCCC3)C2=O)o1 [Compound 40e], the “inhibition of norovirus Sydney 2012 RdRp activity” value [1, 5] is reported as “abolished the activity”.

For O=C1NC(=O)/C(=C/c2ccc(-c3ccccc3)o2)S1 [Compound 18a], the “inhibition of norovirus Sydney 2012 RdRp activity” value [1, 5] was “lacked RdRp inhibitory activity”.

O=C(C1=C(O)C(=O)N(Cc2ccco2)C1c1cccc(O)c1)c1ccc2c(c1)OCCO2 (centres unmarked) [Compound 8] gave an inhibition at 10 µM [1, 7] of over 25% and an inhibition at 100 µM [1, 8] of over 25%.

For Cc1ccccc1-c1ccc(/C=C2\SC(=O)N(CC(=O)N3CCOCC3)C2=O)o1 [Compound 23c], the “inhibition of norovirus Sydney 2012 RdRp activity” value [1, 5] was “complete loss of activity”.

In the case of COc1cccc(NC(=O)Cn2nc(C(F)(F)F)cc2C2CC2)c1 [AK-968/41925073], the “inhibition of human norovirus RdRp activity” value ([1]; 10 µM, initial screen of purchased compounds) is reported as “over 25%”, the “inhibition of human norovirus RdRp activity” value ([1]; 100 µM, initial screen of purchased compounds) is reported as “over 25%” and the “solubility (observation)” value [4] is reported as “precipitated heavily in 100% DMSO”.

For O=C(CN1C(=O)S/C(=C\c2ccc(-c3ccccc3)o2)C1=O)N1CCCCC1 [Compound 24a], the “inhibition of norovirus Sydney 2012 RdRp activity” value [1, 5] was “loss of inhibitory activity”.
